US9643951B2, “Compound having somatostatin receptor agonistic activity and pharmaceutical use thereof” (ONO PHARMACEUTICAL CO., LTD., priority 2013, dated 2017)
Each block holds one compound with its values, some of them ahead of it.

Key:
[1] = Evaluation of cytotoxicity using cultured human hepatocytes (intracellular ATP); format: cell-based; settings: read-out: IC50 of cytotoxicity (concentration at which 50% of the luminescence is suppressed)
Procedure: Evaluation of Cytotoxicity Using Cultured Human Hepatocytes
Frozen adhesive human hepatocytes were thawed, suspended in a hepatocellular medium (HCM) purchased from Lonza and inoculated to a 96-well plate coated with collagen. The culture medium of the hepatocytes cultured overnight in an incubator (5% carbon dioxide, 95% air, 37° C.) was exchanged to the medium containing a test compound at a concentration of 0, 12.5, 25, 50, 100, 200 or 400 (×10^−6 mol/L) and the cells were further cultured for 24 hours. Cytotoxicity was evaluated by measuring the intracellular ATP concentration. Specifically, using the Promega Celltiter-Glo luminescent assay kit available from Promega, cells were lysed in the assay buffer included in the kit and the concentration of ATP released from the cells was measured according to the luminescence resulting from luciferin-luciferase enzyme activity. The luminescence was measured on the SpectraMax plate reader from Molecular Devices. The extent of cytotoxicity of a test compound is represented by the concentration (IC50) of the compound at which 50% of the luminescence is suppressed.

[2] = Human hepatic microsome stability test; format: in vitro ADME; settings: human hepatic microsomes 1 mg/mL; 60 minutes; test compound 0.001 mmol/L; 37° C.
Procedure: Human Hepatic Microsome Stability Test
To a reaction vessel heated to 37° C. in a water bath, 0.392 mL of phosphate buffer (0.1 mol/L, pH 7.4) containing human hepatic microsomes (1 mg/mL, Xenotech) and NADPH-Co-factor (NADP+1.3 mmol/L, BD-Bioscience) was added and pre-incubated for 5 minutes. A 50% acetonitrile solution (0.008 mL) containing 0.05 mmol/L of a test compound was added thereto to initiate the enzyme reaction (final concentration of the test compound: 0.001 mmol/L). Immediately after initiation of the reaction and at 60 minutes thereafter, 0.050 mL of the reaction solution was respectively collected, which was immediately added to an acetonitrile solution (0.2 mL) containing an internal standard (45 nmol/L, 1-[3-(3,5-dimethylphenyl)-4-quinolinyl]-4-piperidineamine) to terminate the enzyme reaction.
The residual rate (%), which is indicative of stability of the test compound, was calculated using the ratio of peak areas between the test compound and the internal substance determined by LC/MS/MS (TSQ Quantum Discovery MAX, Thermo) analysis of the sample thus prepared by the above procedures followed by filtration, and the equation: {[residual rate (%)=[peak area of a test compound in a sample at 60 minutes after initiation of the reaction/peak area of the internal standard]/[peak area of the test compound in the sample immediately after initiation of the reaction/peak area of the internal standard]×100}.

[3] = target: T1, human SSTR2 (Homo sapiens, UniProt P30874); assay: Evaluation of SSTR2 agonistic activity using cells expressing human SSTR2 (suppression of forskolin-stimulated cAMP production, SSTR2-CHO-K1); format: cell-based
T1 construct: Myc; expressed in transfected cells
Procedure: Evaluation of SSTR2 Agonistic Activity Using Cells Expressing Human SSTR2
(1) Isolation of Human SSTR2 Gene
Human brain cDNA was purchased from Ambion (catalogue No.: 7962; Lot No.: 040200121). PCR primers, hSSTR2_F1_XhoI: 5′-[…]-3′ (SEQ ID NO: 1) and hSSTR2_R1_EcoRI: 5′-[…]-3′ (SEQ ID NO: 2) were designed on the basis of the sequence GenBank NM_001050.
PCR reaction (95° C. for 2 min.→[98° C. for 10 sec., 60° C. for 30 sec. and 68° C. for 90 sec.]×30 cycles) was carried out using the human brain cDNA as a template and using KOD-plus-(TOYOBO Co., Ltd.). The amplified PCR product was subjected to 1% agarose gel electrophoresis, purified using QIAquick Gel Extraction Kit (QIAGEN) and digested with restriction enzymes XhoI and EcoRI. The digested fragments were ligated to an expression vector (pIRESneo-Myc) using the DNA Ligation Kit Ver. 2 (Takara) and used for transformation of E. coli DH5a. The plasmid pIRESneo-Myc/hSSTR2 was prepared and the DNA sequence thereof was confirmed.
(2) Culture of CHO-K1 Cells
CHO-K1 (−) was cultured in Ham's F-12 medium (containing foetal bovine serum (10%), penicillin (100 U/mL) and streptomycin (0.1 mg/mL)). The transduced cells were cultured in the same medium supplemented with Geneticin (1 mg/mL).
(3) Transduction of CHO-K1 Cells
CHO-K1(−) cells were transduced with the plasmid pIRESneo-Myc/hSSTR2 using Lipofectamine 2000 (Invitrogen). After 48 hours, selection was carried out by replacing the medium with the one containing 1 mg/mL of Geneticin to establish a stable overexpressing cell line (SSTR2-CHO-K1).
(4) Evaluation of SSTR2 Agonistic Activity
The human SSTR2 agonistic activity of a test compound was evaluated according to the following procedures by using a suppression activity of intracellular cyclic AMP (cAMP) production by forskolin stimulation as an index. SSTR2-CHO-K1 cells suspended in Ham's F-12 medium (containing foetal bovine serum (10%), penicillin (100 U/mL) and streptomycin (0.1 mg/mL)) supplemented with 0.25 mg/mL of Geneticin were inoculated into a 96-well plate at a density of 4.0×10^4 cells/0.1 mL per well. On the next day, the medium was removed and washed twice with 0.1 mL of wash buffer [0.1% bovine serum albumin (BSA), 20 mmol/L 4-(2-hydroxyethyl)-1-piperazineethane sulphonic acid (HEPES)-containing Hank's balanced salt solution (HBSS)]. An assay buffer [[…] 3-isobutyl-1-methylxanthine (IBMX), 0.1% BSA, 20 mmol/L HEPES-containing HBSS] was added to the wells at 0.06 mL per well and the plate was incubated for 15 minutes under the conditions of 5% carbon dioxide and 37° C. Thereafter, an assay buffer containing a test compound at a concentration twice as high as the final concentration and 0.02 mmol/L of forskolin was added to wells at 0.06 mL per well and the plate was incubated for 30 minutes under the conditions of 5% carbon dioxide and 37° C. Thereafter, the Assay/Lysis buffer included in the cAMP-Screen® kit (available from Applied Biosystems) was added to wells at 0.12 mL per well and the plate was incubated for 30 minutes under the conditions of 5% carbon dioxide and 37° C. The concentration of cAMP in samples were measured by ELISA according to the instruction of the kit.

[4] = test system: growth hormone (GH) secretion; assay: Evaluation of suppression of growth hormone (GH) secretion using rats (GHRH-induced); format: in vivo
Procedure: Evaluation of Suppression of Growth Hormone (GH) Secretion Using Rats
[Procedure (A): Administration of a Test Compound 30 Minutes Beforehand]
A medium (distilled water (Otsuka distilled water, Otsuka Pharmaceutical Factory, […]) IGS rats (Charles River Laboratories Japan, Inc.)) and after 27 minutes, the animals were administered with 50 mg/kg of pentobarbital sodium (Somnopentyl, Kyoritsu Seiyaku Corporation) via the tail vein for anaesthesia. Three minutes after administration of pentobarbital sodium, the rats were administered with 0.01 mg/kg of growth hormone-releasing hormone (GHRH, Bachem) via the tail vein to induce GH secretion. In order to measure the blood GH concentration, 0.2 mL of blood was collected through the jugular vein at 5 minutes after administration of GHRH. The collected blood was centrifuged at 4° C., 13,000×g for 5 minutes to obtain plasma. The blood GH concentration was measured by using Rat/Mouse Growth Hormone ELISA (Millipore) following the instruction of the kit. The percentage (%) of suppression of GH secretion was determined by using the obtained blood GH concentration and the equation {[suppression (%) of GH secretion]=([blood GH concentration of the group administered with the medium]−[blood GH concentration of the group administered with a test compound])/[blood GH concentration of the group administered with the medium]×100}. In the equation, the group administered with the medium represents the group of animals administered with the medium and the group administered with a test compound represents the group of animals administered with a test compound dissolved in the medium.
[Procedure (B): Administration of a Test Compound 8 Hours Beforehand]
A medium (distilled water (Otsuka distilled water, Otsuka Pharmaceutical Factory, […]) IGS rats (Charles River Laboratories Japan, Inc.)) and after 7 hours and 57 minutes, the animals were administered with 50 mg/kg of pentobarbital sodium (Somnopentyl, Kyoritsu Seiyaku Corporation) via the tail vein for anaesthesia. Three minutes after administration of pentobarbital sodium, the rats were administered with 0.01 mg/kg of growth hormone-releasing hormone (GHRH, Bachem) via the tail vein to induce GH secretion. The rest of the procedure is the same as in [Procedure (A)] described above.

[5] = target: somatostatin receptor subtype 4 (SSTR4) (Homo sapiens, UniProt P31391); settings: reported; cited from earlier work
[6] = target: somatostatin receptor subtype 2 (SSTR2) (Homo sapiens, UniProt P30874); settings: reported; cited from earlier work
[7] = target: somatostatin receptor subtype 1 (SSTR1) (Homo sapiens, UniProt P30872); settings: reported; cited from earlier work
[8] = target: somatostatin receptor subtype 3 (SSTR3) (Homo sapiens, UniProt P32745); settings: reported; cited from earlier work
[9] = test system: gastric acid secretion; assay: Evaluation of suppression of gastric acid secretion using rats (pyloric ligation); format: in vivo; settings: continuous intravenous administration at 1 mcg (microgram)/kg/h

T1 sequence (P30874 whole entry): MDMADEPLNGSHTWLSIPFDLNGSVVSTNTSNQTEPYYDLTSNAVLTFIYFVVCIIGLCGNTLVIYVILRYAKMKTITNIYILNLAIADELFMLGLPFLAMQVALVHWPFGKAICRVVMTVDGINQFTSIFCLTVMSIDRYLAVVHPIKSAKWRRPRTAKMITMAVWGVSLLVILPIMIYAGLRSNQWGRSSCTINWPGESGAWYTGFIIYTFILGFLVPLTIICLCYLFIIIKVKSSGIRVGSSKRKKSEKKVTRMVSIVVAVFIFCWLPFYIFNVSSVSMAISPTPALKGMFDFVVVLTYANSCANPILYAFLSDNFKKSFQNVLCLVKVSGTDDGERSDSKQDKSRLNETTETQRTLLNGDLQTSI
Sequence of somatostatin receptor subtype 3 (SSTR3) (P32745 whole entry, species assumed): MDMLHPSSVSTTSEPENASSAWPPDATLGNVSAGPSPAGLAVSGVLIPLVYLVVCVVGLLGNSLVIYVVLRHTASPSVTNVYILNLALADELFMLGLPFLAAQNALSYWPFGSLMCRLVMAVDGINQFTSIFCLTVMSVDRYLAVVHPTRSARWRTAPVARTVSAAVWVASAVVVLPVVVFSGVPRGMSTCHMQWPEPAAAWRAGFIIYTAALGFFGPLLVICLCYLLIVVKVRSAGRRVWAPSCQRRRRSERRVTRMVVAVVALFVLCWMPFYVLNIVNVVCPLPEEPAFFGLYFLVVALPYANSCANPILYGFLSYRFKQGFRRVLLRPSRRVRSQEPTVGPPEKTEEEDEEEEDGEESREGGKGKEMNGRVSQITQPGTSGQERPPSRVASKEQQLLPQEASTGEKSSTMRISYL
Sequence of somatostatin receptor subtype 4 (SSTR4) (P31391 whole entry, species assumed): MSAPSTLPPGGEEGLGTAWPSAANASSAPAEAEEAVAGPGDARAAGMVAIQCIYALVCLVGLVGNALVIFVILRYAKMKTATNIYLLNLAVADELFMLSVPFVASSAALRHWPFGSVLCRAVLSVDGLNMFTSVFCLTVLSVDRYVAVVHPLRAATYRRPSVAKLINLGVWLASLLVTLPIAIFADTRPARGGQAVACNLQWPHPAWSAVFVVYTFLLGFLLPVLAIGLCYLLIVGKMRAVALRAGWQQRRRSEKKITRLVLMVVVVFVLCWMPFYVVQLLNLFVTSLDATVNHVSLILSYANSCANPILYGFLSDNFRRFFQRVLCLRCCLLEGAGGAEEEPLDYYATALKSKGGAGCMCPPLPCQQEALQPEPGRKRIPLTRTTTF
Sequence of somatostatin receptor subtype 1 (SSTR1) (P30872 whole entry, species assumed): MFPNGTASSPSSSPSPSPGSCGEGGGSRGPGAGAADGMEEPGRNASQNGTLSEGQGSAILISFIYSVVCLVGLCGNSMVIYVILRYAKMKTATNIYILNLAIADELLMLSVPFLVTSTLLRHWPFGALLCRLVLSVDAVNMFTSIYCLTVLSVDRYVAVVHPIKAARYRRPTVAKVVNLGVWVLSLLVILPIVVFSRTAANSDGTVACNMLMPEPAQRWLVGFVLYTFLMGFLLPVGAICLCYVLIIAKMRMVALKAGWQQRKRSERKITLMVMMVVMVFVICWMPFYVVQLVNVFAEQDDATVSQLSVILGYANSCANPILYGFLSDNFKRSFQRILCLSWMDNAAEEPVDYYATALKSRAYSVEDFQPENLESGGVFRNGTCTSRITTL
Sequence of somatostatin receptor subtype 2 (SSTR2) (P30874 whole entry, species assumed): as the sequence (P30874 whole entry) above

residual rate [2]: 92.9% | EC50 [3]: 0.26 nM
Structure (SMILES): COc1ccc(F)cc1C(=O)Nc1cncc(-c2cc(Cl)cc(Cl)c2)c1N1CCC(N)CC1 [Example 7(1), N-[4-(4-amino-1-piperidinyl)-5-(3,5-dichlorophenyl)-3-pyridinyl]-5-fluoro-2-methoxybenzamide]
IC50 at 24 h [1]: 34 µM | inhibition in vivo at 3 mg/kg ([4]; Rattus norvegicus, Procedure (B): oral administration 8 hours beforehand, 3 mg/kg, read-out: percentage of suppression of GH secretion): 88%

residual rate [2]: 100.0% | EC50 [3]: 0.34 nM
Structure (SMILES): NC1CCN(c2c(NC(=O)c3cccc(Cl)c3)cncc2-c2cc(F)cc(Cl)c2)CC1 [Example 7, N-[4-(4-amino-1-piperidinyl)-5-(3-chloro-5-fluorophenyl)-3-pyridinyl]-3-chlorobenzamide]
IC50 at 24 h [1]: 74 µM | inhibition in vivo at 10 mg/kg ([4]; Rattus norvegicus, Procedure (B): oral administration 8 hours beforehand, 10 mg/kg, read-out: percentage of suppression of GH secretion): 93%

Structure (SMILES): CC(C)[C@@H]1NC(=O)[C@H](CCCCN)NC(=O)[C@@H](Cc2c[nH]c3ccccc23)NC(=O)[C@H](Cc2ccc(O)cc2)NC(=O)[C@@H](NC(=O)[C@H](N)Cc2ccc3ccccc3c2)CSSC[C@@H](C(=O)N[C@H](C(N)=O)[C@@H](C)O)NC1=O [lanreotide acetate]
binding to SSTR4 [5]: do not bind | binding affinity to SSTR2 [6]: high affinity | binding to SSTR1 [7]: do not bind | binding affinity to SSTR3 [8]: moderate affinity

Structure (SMILES): C[C@@H](O)[C@@H]1NC(=O)[C@H](CCCCN)NC(=O)[C@@H](Cc2c[nH]c3ccccc23)NC(=O)[C@H](Cc2ccccc2)NC(=O)[C@@H](NC(=O)[C@H](N)Cc2ccccc2)CSSC[C@@H](C(=O)N[C@H](CO)[C@@H](C)O)NC1=O [octreotide, reference compound]
percentage of suppression of gastric acid secretion [9]: 39% | suppression of GH secretion ([4]; Procedure (A): 30 minutes beforehand, 0.003 mg/kg by subcutaneous administration): 98%
